From ChEMBL document CHEMBL3507680, “University of Dundee, Gates Library screen for HepG2 cell viability”
Several values for one entry are separate records, joined by “and”; a condition that tells them apart may be missing. Identical values can stand only once.

How the values were obtained:
[1] = Human HepG2 cell viability assay in 384 well format; assay type: toxicity, cell-based; set-up: dose 125 nL, time 70.5 hour; cytotoxicity at 70.5 h: concentration not given beside the values; conditions: HepG2 cells, read-out: Inhibition
[2] = Human HepG2 cell viability dose-response assay; assay type: toxicity, cell-based

| Compound | cytotoxicity at 70.5 h [1] [%] | BOTTOM [2] | HILLSLOPE [2] | TOP [2] | pXC50 [2] |
| --- | --- | --- | --- | --- | --- |
| O=C(Nc1cc(C(F)(F)F)c[nH]c1=O)c1ccco1 | 64 | -14.03 and -12.55 | 1.1 and 1.086 | 100 | 4.903 and 4.796 |
| Cn1nc(C(=O)NCc2ccccn2)c2c1CCS(=O)(=O)C2 | 88.4 | 0 | 0 | 0 | < 4.53 |
| Fc1cccc(Nc2nc(N3CCCC3)nc3c2CNCC3)c1 | 80.4 | – | 8.053 and 11.8 | 102.5 and 101.7 | 5.055 and 5.01 |
| Cc1ccc(S(=O)(=O)N2C[C@H]3C[C@H](NC(=O)c4cc[nH]n4)[C@H]3C2)cc1 | 61.6 | -15.24 and -16.22 | 0.6106 and 0.5978 | 100 | 5.239 and 5.299 |
| COc1ccccc1NC(=O)c1ccc(C)n1C | 96 | -9.133 and -11.57 | 2.979 and 2.832 | 100 | 5.661 and 5.693 |
| Cc1cc(NC2CCc3nc(C(C)C)nn3C2)n2ncnc2n1 (configuration not stated) | 84.4 | 0 | 0 | 0 | < 4.53 |
| Cc1n[nH]c(C2CN(CC(=O)NCCC3=CCCCC3)CCO2)n1 (configuration not stated) | 76.6 | 0 | 0 | 0 | < 4.53 |
| OC1COCCN(Cc2cc(-c3ccccc3OC(F)(F)F)no2)C1 (configuration not stated) | 60 | 0 | 0 | 0 | < 4.53 |
| CCc1[nH]c2c(CNc3cc(C)nc(NC)n3)cc(C)cc2c1C | 98.3 | -3.677 and -3.483 | 3.229 and 3.201 | 103.4 and 104.1 | 5.247 and 5.258 |
| Cc1nc(CC(C)C)cc(C(=O)N2C[C@@H](N(C)C)[C@H](C(C)C)C2)n1 | 67 | 0 | 0 | 0 | < 4.53 |
| NCC1CCN(C2CCN(c3ccc(-c4ccco4)cc3)CC2)C1 (configuration not stated) | 102 | -8.648 and -4.813 | 7.574 and 7.233 | 102.1 and 102.4 | 5.593 and 5.596 |
| CC(C)c1cc(CN2CCNCC2)no1 | 94.6 | -2.548 and -2.696 | – | 101.6 and 102.2 | 4.866 and 4.991 |
| O=C(CCNCC(F)(F)F)N1CCC(Nc2cccnn2)CC1 | 66.1 | 0 | 0 | 0 | < 4.53 |
| Cc1noc(CN2CCOC(CN(C)C)C2)n1 (configuration not stated) | 70.1 | 0 | 0 | 0 | < 4.53 |
| Cc1noc(C)c1C(=O)N1CCCC1c1c(C)nn(C)c1Cl (configuration not stated) | 103 | 0 | 0 | 0 | < 4.53 |
| CCc1nc(CN(C)C2CCN(Cc3cnc(C)cn3)C2)no1 (configuration not stated) | 66 | 0 | 0 | 0 | < 4.53 |
| Cc1nc(Nc2ncc(C)s2)cc(C2CCCN2)n1.Cl (configuration not stated) | 95.5 | 26.01 and 24.5 | 4.462 and 3.743 | 100.2 and 98.81 | 5.319 and 5.315 |
| COc1ccc(CNC(Cc2ccsc2)c2ccc(C)cn2)cc1OC.Cl (configuration not stated) | 91.5 | -6.281 and -3.457 | 2.493 and 1.7 | 86.66 and 100 | 5.471 and 5.341 |
| Cl.Cl.Clc1cccc(C[C@@H]2NCCC[C@@H]2Nc2cccc(Cl)c2)c1 | 105 | – | 19.49 and 7.416 | 101.7 and 101.8 | 5.461 and 5.474 |
| CC(C)N1CCN(c2ccc3ccc(C(=O)NC4CCCC4)cn23)CC1.O=C(O)C(F)(F)F | 101 | 0 | 0 | 0 | < 4.53 |
